Reference: ChEMBL document CHEMBL5291721, “A preclinical secondary pharmacology resource illuminates target-adverse drug reaction associations of marketed drugs” (Nat Commun, 2023)

Experiments:
[1] = target: T1, Alpha-2C adrenergic receptor (Homo sapiens, UniProt P18825); assay type: functional
T1 sequence (P18825 whole entry): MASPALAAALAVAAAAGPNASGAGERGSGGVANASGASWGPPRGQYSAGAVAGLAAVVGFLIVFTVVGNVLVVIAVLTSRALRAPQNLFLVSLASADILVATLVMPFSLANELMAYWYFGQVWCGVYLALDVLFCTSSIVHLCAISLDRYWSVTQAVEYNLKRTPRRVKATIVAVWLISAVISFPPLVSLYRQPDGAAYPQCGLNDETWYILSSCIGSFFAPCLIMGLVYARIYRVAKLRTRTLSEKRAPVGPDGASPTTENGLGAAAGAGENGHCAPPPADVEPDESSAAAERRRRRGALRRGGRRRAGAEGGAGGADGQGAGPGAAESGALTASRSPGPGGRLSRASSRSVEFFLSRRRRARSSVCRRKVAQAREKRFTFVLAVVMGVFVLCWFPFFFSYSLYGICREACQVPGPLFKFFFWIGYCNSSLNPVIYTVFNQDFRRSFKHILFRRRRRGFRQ

[2] = target: T2, Type-1 angiotensin II receptor (Homo sapiens, UniProt P30556)
T2 sequence (P30556 whole entry): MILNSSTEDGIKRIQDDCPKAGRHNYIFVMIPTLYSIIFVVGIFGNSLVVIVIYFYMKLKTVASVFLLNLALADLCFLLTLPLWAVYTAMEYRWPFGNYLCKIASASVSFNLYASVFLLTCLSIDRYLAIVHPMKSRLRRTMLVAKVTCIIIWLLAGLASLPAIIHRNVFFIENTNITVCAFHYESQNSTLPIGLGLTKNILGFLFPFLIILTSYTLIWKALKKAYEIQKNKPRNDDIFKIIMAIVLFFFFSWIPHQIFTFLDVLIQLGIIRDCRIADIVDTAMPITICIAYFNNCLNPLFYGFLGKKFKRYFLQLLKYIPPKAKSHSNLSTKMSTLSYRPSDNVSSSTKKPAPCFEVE

B2 bradykinin receptor = target: T3, B2 bradykinin receptor (Homo sapiens, UniProt P30411)
T3 sequence (P30411 whole entry): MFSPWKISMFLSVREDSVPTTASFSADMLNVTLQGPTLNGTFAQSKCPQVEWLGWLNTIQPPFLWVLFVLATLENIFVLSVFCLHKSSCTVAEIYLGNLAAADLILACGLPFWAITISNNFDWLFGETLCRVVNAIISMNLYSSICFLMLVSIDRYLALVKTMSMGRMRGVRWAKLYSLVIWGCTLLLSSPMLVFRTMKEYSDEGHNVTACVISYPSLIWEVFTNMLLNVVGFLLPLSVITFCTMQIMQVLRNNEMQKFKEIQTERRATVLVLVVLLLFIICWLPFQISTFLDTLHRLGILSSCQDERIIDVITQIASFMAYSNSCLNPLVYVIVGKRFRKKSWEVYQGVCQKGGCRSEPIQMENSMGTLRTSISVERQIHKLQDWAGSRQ

[3] = target: T4, Cholecystokinin receptor type A (Homo sapiens, UniProt P32238)
T4 sequence (P32238 whole entry): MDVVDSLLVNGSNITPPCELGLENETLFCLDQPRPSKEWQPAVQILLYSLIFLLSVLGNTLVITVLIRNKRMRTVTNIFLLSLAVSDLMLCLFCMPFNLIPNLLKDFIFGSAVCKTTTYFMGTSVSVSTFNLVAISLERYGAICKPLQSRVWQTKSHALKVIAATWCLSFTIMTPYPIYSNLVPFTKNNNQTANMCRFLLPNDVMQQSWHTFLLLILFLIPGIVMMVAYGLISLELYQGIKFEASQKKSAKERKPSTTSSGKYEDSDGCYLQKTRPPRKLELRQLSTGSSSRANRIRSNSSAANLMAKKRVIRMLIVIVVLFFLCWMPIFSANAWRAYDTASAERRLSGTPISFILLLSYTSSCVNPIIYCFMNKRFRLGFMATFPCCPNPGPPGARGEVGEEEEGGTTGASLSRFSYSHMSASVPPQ

[4] = target: T5, Muscarinic acetylcholine receptor M2 (Homo sapiens, UniProt P08172); assay type: functional, cell-based
T5 sequence (P08172 whole entry): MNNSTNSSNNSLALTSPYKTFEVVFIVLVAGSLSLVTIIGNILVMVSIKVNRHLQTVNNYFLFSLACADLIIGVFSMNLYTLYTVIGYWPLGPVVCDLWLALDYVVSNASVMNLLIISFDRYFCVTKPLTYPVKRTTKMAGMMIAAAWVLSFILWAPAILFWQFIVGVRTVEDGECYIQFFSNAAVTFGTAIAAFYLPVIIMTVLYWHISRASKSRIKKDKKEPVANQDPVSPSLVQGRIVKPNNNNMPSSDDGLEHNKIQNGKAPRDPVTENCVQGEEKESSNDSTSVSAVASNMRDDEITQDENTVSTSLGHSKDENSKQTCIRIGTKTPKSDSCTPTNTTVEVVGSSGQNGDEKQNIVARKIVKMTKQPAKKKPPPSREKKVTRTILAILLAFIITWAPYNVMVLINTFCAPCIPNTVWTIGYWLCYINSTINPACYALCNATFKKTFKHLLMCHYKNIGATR

[5] = target: Neuronal acetylcholine receptor subunit alpha-4 (Homo sapiens, UniProt P43681)
Neuronal acetylcholine receptor subunit alpha-4, sequence (P43681 whole entry): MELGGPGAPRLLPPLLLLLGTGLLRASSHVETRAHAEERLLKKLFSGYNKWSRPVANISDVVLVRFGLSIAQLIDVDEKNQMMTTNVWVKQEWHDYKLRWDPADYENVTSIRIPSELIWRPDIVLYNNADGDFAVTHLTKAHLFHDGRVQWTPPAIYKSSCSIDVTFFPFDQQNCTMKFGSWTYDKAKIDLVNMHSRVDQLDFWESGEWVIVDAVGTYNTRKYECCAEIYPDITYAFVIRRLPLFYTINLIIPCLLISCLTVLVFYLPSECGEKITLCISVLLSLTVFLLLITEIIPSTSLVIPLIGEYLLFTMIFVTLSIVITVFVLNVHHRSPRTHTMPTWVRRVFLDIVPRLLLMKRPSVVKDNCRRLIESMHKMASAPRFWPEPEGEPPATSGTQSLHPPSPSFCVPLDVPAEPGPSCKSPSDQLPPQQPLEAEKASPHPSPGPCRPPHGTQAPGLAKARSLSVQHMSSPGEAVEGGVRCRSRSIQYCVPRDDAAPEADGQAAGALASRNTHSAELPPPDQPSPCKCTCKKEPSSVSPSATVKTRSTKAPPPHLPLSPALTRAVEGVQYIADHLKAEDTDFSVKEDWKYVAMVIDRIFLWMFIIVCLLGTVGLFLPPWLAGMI

[6] = target: 5-hydroxytryptamine receptor 2B (Homo sapiens, UniProt P41595); assay type: functional, cell-based
5-hydroxytryptamine receptor 2B, sequence (P41595 whole entry): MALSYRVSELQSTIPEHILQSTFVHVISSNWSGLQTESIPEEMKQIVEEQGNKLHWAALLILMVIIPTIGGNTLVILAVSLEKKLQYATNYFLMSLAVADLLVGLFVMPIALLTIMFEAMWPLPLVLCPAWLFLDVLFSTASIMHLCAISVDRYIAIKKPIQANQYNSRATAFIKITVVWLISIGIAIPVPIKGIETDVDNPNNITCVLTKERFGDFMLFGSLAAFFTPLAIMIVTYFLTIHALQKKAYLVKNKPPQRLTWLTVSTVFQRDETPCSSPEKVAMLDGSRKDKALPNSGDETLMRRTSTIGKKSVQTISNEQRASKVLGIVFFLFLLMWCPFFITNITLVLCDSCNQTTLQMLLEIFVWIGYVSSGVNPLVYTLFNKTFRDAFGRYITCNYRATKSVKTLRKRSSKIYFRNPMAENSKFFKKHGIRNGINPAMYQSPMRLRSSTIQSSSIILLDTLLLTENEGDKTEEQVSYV

[7] = target: T6, 5-hydroxytryptamine receptor 3A (Homo sapiens, UniProt P46098); assay type: functional
T6 sequence (P46098 whole entry): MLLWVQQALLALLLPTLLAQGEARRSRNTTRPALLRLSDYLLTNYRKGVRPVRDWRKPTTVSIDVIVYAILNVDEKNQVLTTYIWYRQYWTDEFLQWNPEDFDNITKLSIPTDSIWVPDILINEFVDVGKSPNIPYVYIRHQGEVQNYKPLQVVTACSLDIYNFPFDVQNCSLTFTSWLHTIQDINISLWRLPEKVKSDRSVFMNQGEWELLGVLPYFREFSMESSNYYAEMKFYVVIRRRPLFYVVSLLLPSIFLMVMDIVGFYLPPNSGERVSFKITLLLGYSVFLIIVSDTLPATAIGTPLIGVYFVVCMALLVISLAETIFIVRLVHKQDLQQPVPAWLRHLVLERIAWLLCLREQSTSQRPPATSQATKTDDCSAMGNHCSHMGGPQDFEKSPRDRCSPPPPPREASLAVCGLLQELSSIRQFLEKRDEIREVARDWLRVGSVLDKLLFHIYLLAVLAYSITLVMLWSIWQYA

[8] = target: Kappa-type opioid receptor (Homo sapiens, UniProt P41145)
Kappa-type opioid receptor, sequence (P41145 whole entry): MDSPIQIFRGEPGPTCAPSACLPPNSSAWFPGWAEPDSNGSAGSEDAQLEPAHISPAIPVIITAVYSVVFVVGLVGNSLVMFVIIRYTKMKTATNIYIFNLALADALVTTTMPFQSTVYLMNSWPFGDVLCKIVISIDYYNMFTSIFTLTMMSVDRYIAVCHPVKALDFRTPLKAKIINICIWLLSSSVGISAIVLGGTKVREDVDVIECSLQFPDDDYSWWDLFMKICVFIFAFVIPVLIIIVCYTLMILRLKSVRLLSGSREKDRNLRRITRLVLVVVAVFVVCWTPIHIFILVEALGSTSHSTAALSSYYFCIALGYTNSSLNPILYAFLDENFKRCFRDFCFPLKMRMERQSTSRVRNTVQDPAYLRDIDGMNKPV
Also: assay procedure not described here.

Structure (SMILES)	AC50 [1]	AC50 [2]	AC50 (B2 bradykinin receptor)	AC50 [3]	AC50 [4]	AC50 [5]	AC50 [6]	AC50 [7]	AC50 [8]
CC[C@@H](C(N)=O)N1CCCC1=O	> 30 µM	> 30 µM	> 30 µM	> 30 µM	> 30 µM	> 30 µM	> 30 µM	> 30 µM	> 30 µM
CCC(CC)(CC(=O)Nc1cccc(/C=C/c2nc(C3CCC3)cs2)c1)C(=O)O		> 30 µM	> 30 µM	> 30 µM		> 30 µM			
CCCC1O[C@@H]2C[C@H]3[C@@H]4CCC5=CC(=O)C=C[C@]5(C)[C@H]4[C@@H](O)C[C@]3(C)[C@]2(C(=O)CO)O1 (stereo partly specified) [BUDESONIDE]	> 10 µM	> 10 µM	> 10 µM	> 10 µM	> 10 µM	> 10 µM	> 10 µM	> 30 µM	> 10 µM
C=CCN1C[C@H](C(=O)N(CCCN(C)C)C(=O)NCC)C[C@@H]2c3cccc4[nH]cc(c34)C[C@H]21 [CABERGOLINE]	0.3 µM	> 10 µM	> 10 µM	> 10 µM	> 30 µM	> 10 µM		> 30 µM	> 10 µM
CN1CCN(C2=Nc3ccccc3Sc3ccc(Cl)cc32)CC1 [CLOTHIAPINE]	2.1 µM				> 30 µM		1.3 µM	9 µM	> 30 µM
CN(C)CCC=C1c2ccccc2C=Cc2ccccc21 [CYCLOBENZAPRINE]	3.9 µM	> 30 µM	> 30 µM	> 30 µM		> 10 µM	1.25 µM	> 30 µM	
CCOc1ccc(Cc2cc([C@@H]3O[C@H](CO)[C@@H](O)[C@H](O)[C@H]3O)ccc2Cl)cc1 [DAPAGLIFLOZIN]	> 10 µM	> 30 µM	> 30 µM	> 30 µM		> 10 µM		> 30 µM	> 10 µM
CN(C)CC/C=C1\c2ccccc2CSc2ccccc21 [DOTHIEPIN]	9.8 µM	> 30 µM	> 30 µM	> 30 µM	> 30 µM	> 30 µM	3.6 µM	> 30 µM	
CC[C@H]1CN2CCc3cc(OC)c(OC)cc3[C@@H]2C[C@@H]1C[C@H]1NCCc2cc(OC)c(OC)cc21 [EMETINE]	0.23 µM	> 30 µM	> 30 µM	> 30 µM	> 30 µM	> 30 µM	> 30 µM	> 30 µM	> 30 µM
COc1ccc(C(=O)Nc2ccccc2CCC2CCCCN2C)cc1 (stereo unspecified) [ENCAINIDE]	> 10 µM	> 30 µM	> 30 µM	> 30 µM	> 10 µM	> 10 µM	> 10 µM	> 30 µM	3.6 µM
O=[N+]([O-])O[C@@H]1CO[C@H]2[C@@H]1OC[C@@H]2O [ISOSORBIDE MONONITRATE]	> 10 µM	> 30 µM	> 30 µM	> 30 µM	> 10 µM		> 10 µM	> 30 µM	> 10 µM
Cc1cc(C)c(NC(=O)CN(CC(=O)O)CC(=O)O)c(C)c1Br [MEBROFENIN]	> 30 µM				> 30 µM		> 30 µM	> 30 µM	> 30 µM
COc1ccccc1N1CCN(CC(O)COc2cccc3ccccc23)CC1 (stereo unspecified) [NAFTOPIDIL]	0.2 µM				> 30 µM	> 10 µM	0.84 µM	> 30 µM	2.2 µM
C[N+]1(CCCCC[N+]2(C)CCCC2)CCCC1 [PENTOLINIUM]						> 30 µM			
COc1cc2nc(N3CCN(C(=O)c4ccco4)CC3)nc(N)c2cc1OC [PRAZOSIN]		7.8 µM	> 30 µM	> 30 µM	> 10 µM	> 10 µM	26 µM	> 10 µM	4.94 µM
O=[N+]([O-])c1cn2c(n1)OC[C@@H](OCc1ccc(OC(F)(F)F)cc1)C2 [PRETOMANID]	> 10 µM	> 30 µM	> 30 µM	> 30 µM				> 10 µM	> 10 µM
Cc1oc(=O)oc1CN1CCN(c2cc3c(cc2F)c(=O)c(C(=O)O)c2n3C(C)S2)CC1 (stereo unspecified) [PRULIFLOXACIN]	> 30 µM				> 30 µM		> 30 µM	> 30 µM	> 30 µM
CCCCCNC(=N)N/N=C/c1c[nH]c2ccc(OC)cc12 [TEGASEROD]	0.771 µM	1.8 µM	> 30 µM	> 30 µM	> 30 µM	> 30 µM	0.343 µM	> 30 µM	4.9 µM
COC1=C(OC)C(=O)C(C/C=C(\C)CC/C=C(\C)CC/C=C(\C)CC/C=C(\C)CC/C=C(\C)CC/C=C(\C)CC/C=C(\C)CC/C=C(\C)CC/C=C(\C)CCC=C(C)C)=C(C)C1=O [UBIDECARENONE]	> 30 µM				> 30 µM		> 30 µM	> 30 µM	> 30 µM
CCOc1ccccc1OCC1CNCCO1 (stereo unspecified) [VILOXAZINE]	> 10 µM	> 30 µM	> 30 µM	> 30 µM	> 10 µM	> 10 µM	> 10 µM	> 10 µM	> 10 µM
CN(C)CCc1c[nH]c2ccc(C[C@H]3COC(=O)N3)cc12 [ZOLMITRIPTAN]	> 30 µM	> 30 µM	> 30 µM	> 30 µM	> 30 µM	> 30 µM	> 30 µM	> 30 µM	> 30 µM
